Assay results published in patent US20030017976A1, “Therapeutic properties of liposome-encapsulated immunomodulators” (priority 1998, published 2003).
Values joined by “and” are separate entries in the source; they are usually repeats but may differ in a detail not shown here. Equal entries are not always repeated.

Tests used:
C57BL/6 mice = experiment: Prevention of CPT-11 induced intestinal damage and morbidity by oral immunomodulator; type: in vivo, mouse; settings: oral saline or JBT3002 0.1, 1.0 and 10 μg/dose in PC liposomes, then CPT-11 100 mg/kg i.p. 4 days
Method: Experimental Design and Methods. […] Tissue was harvested 7 days after the last injection (small intestine and colon distal to the cecum). Histology was prepared. Some mice were monitored for the presence of drug toxicity.
Example 6 has shown that 100, 150, and 200 mg/kg at 4 consecutive i.p. administrations are highly toxic to C57BL/6 mice.

[1] = test system: L3.6pl human pancreatic tumors; experiment: Therapy of L3.6pl human pancreatic tumors in nude mice; type: in vivo, mouse; settings: CPT-11 100 mg/kg i.p. once a week +/− oral JBT 3002 (tablet) 0.05 mcg/dose
Method: Table 19 (A, B, C). Therapy of human pancreatic carcinoma liver metastasis. The pancreas of nude mice were injected with 1×10^6 viable human pancreatic cancer L3.6pl cells. […] This regimen was repeated on a weekly basis for 3 weeks. The mice were killed. Pancreatic tumors, liver metastases, and lymph node metastasis were quantified.

Substance: N-hexadecanol-S-[2(R)-3-diodecanoyloxypropyl]-L-cysteinyl-L-alanyl-D-isoglutaminyl-glycyl-taurine sodium salt [JBT3002]
- intestinal toxicity (histology) (C57BL/6 mice): the intestines were normal
- Incidence LN met ([1]; 31 days): 7/10
- Incidence WT/PC ([1]; 31 days): 3/10
- Incidence liver met ([1]; 31 days): 2/9
- Tumor weight, Average ([1]; 31 days): 706.22 mg
- Tumor weight, Max ([1]; 31 days): 981 mg
- Tumor weight, Median ([1]; 31 days): 733 mg
- Tumor weight, Min ([1]; 31 days): 362 mg
- tumor weight (range) ([1]; 31 days): (362-981) mg
- Tumor weight, single animals ([1]; 31 days after tumor cell injection, sodium salt): 862 mg and 871 mg and 981 mg and 621 mg and 362 mg and 733 mg and 559 mg and 820 mg and 547 mg
